{"source": "paper PMC5566576", "about": "“Identification and Functional Characterization of Small Alarmone Synthetases in Corynebacterium glutamicum” (Frontiers in Microbiology, 2017)", "molecules": {"B1": {"name": "RelSCg (Corynebacterium glutamicum ATCC 13032) (protein)", "chain": "MSDNTLSQFGSYYHEFRRAHPMADVEFLLAIEELLTDGGVTFDRVTTRIKEWSSLKAKARKRRNDGSLIYPDPRKDIHDMIGVRITTYHSTEIPVALKVLQDSFIVHKSVDKAAETRISGGFGYGSHHLILEVDDTSDDLQDYKGLVFEVQVRTVLQHAWAEFEHDIRYKRADVSNPEDFSAEVDRMFTLAAGLIELADQQFDQIAALKETSRVADESVELTAETLPGVLAMLIGNRFPRPRSTNYRFLEDILVANSITSVVQLRELLNPTDIEVLLKVMNYRFHPGQIRIIDDLLLKRFGQSHIDATVATDSQPLNAKRHRQLKRKLELMTQAHLVEPPN"}}, "key": {"[1]": {"molecular_target": "T1, RelCg (Corynebacterium glutamicum, UniProt O87331)", "T1 construct": "gene relA", "T1 sequence (O87331 1-760)": "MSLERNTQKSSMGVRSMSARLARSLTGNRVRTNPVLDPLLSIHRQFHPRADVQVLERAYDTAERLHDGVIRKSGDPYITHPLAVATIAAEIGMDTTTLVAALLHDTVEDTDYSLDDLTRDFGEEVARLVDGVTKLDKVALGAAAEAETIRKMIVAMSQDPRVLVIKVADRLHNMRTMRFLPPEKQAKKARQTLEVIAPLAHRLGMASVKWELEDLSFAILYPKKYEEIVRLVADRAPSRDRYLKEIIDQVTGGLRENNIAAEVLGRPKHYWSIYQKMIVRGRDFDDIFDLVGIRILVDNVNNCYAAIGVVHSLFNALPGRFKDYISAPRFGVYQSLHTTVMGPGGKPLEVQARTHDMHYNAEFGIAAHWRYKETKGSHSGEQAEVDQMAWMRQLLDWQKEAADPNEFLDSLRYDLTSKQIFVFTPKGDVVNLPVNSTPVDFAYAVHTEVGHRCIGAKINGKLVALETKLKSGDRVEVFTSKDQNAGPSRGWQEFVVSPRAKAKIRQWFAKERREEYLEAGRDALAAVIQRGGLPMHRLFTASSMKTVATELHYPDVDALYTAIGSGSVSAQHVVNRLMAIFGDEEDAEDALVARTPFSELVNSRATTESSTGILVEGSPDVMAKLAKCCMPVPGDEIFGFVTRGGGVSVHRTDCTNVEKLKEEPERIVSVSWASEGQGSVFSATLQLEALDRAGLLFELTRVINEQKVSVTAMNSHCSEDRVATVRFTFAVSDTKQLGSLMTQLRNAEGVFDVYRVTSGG", "experiment": "pyrophosphokinase assay, HPLC-MS product detection (pppGpp)", "assay_type": "biochemical", "conditions": "4 mM ATP, 4 mM GTP, 50 mM Tris-HCl pH 8.0, 5 mM MgCl2, 30°C, 4 h"}, "[2]": {"molecular_target": "T2, RelP*Cg (Corynebacterium glutamicum, UniProt Q8NR76)", "T2 construct": "gene Cgl1177", "T2 sequence (Q8NR76 entry or part of it)": "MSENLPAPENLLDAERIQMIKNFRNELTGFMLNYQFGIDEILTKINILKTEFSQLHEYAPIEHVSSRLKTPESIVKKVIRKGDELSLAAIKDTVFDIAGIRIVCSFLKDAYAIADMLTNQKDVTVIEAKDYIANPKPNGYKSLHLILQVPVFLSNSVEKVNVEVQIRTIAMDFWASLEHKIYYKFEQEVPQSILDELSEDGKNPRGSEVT", "experiment": "phosphohydrolase activity, HPLC-MS product detection (ADP and GDP)", "assay_type": "biochemical", "conditions": "4 mM ATP, 4 mM GTP, 50 mM Tris-HCl pH 8.0, 5 mM MgCl2, 30°C, 4 h; no alarmone formed"}, "[3]": {"molecular_target": "T2, RelP*Cg", "experiment": "kinase activity, HPLC-MS product detection (ADP and GTP)", "assay_type": "biochemical", "conditions": "4 mM ATP, 4 mM GDP, 50 mM Tris-HCl pH 8.0, 5 mM MgCl2, 30°C, 4 h; no pyrophosphokinase activity"}, "[4]": {"molecular_target": "T1, RelCg", "experiment": "pyrophosphokinase assay, HPLC-MS product detection (ppGpp)", "assay_type": "biochemical", "conditions": "4 mM ATP, 4 mM GDP, 50 mM Tris-HCl pH 8.0, 5 mM MgCl2, 30°C, 4 h; GDP also phosphorylated to GTP"}, "[5]": {"substrate": "Nc1nc2c(ncn2[C@@H]2O[C@H](COP(=O)(O)OP(=O)(O)O)[C@@H](O)[C@H]2O)c(=O)[nH]1", "experiment": "pyrophosphokinase assay, HPLC-MS quantification of AMP, polynomial fit", "assay_type": "biochemical, Corynebacterium glutamicum", "conditions": "25 mM ATP, 50 mM HEPES-Na pH 7.0, 200 mM NaCl, 5 mM MgCl2, 30°C, 60 min, 250 nM enzyme, substrate excess inhibition at 25-50 mM"}, "[6]": {"substrate": "Nc1nc2c(ncn2[C@@H]2O[C@H](COP(=O)(O)OP(=O)(O)OP(=O)(O)O)[C@@H](O)[C@H]2O)c(=O)[nH]1", "experiment": "pyrophosphokinase assay, HPLC-MS quantification of AMP, polynomial fit", "assay_type": "biochemical, Corynebacterium glutamicum", "conditions": "25 mM ATP, 50 mM HEPES-Na pH 7.0, 200 mM NaCl, 5 mM MgCl2, 30°C, 60 min, 250 nM enzyme, substrate excess inhibition at 25-50 mM"}, "[7]": {"substrate": "Nc1ncnc2c1ncn2[C@@H]1O[C@H](COP(=O)(O)OP(=O)(O)OP(=O)(O)O)[C@@H](O)[C@H]1O", "experiment": "pyrophosphokinase assay, HPLC-MS quantification of AMP; half-maximal specific activity", "assay_type": "biochemical, Corynebacterium glutamicum", "conditions": "25 mM GTP, 50 mM HEPES-Na pH 7.0, 200 mM NaCl, 5 mM MgCl2, 30°C, 60 min, 250 nM enzyme"}}, "data": [{"molecule": "Nc1nc2c(ncn2[C@@H]2O[C@H](COP(=O)(O)OP(=O)(O)OP(=O)(O)O)[C@@H](O)[C@H]2O)c(=O)[nH]1", "note": "[GTP]", "values": [{"measurement": "pyrophosphokinase assay, HPLC-MS product detection (pppGpp)", "setting": "[1]", "value": "pyrophosphorylation of GDP and GTP to ppGpp and pppGpp was detected"}, {"measurement": "phosphohydrolase activity, HPLC-MS product detection (ADP and GDP)", "setting": "[2]", "value": "containing RelP^*Cg as well as ATP and GTP as substrates, significant amounts of ADP and GDP"}]}, {"molecule": "Nc1nc2c(ncn2[C@@H]2O[C@H](COP(=O)(O)OP(=O)(O)O)[C@@H](O)[C@H]2O)c(=O)[nH]1", "note": "[GDP]", "values": [{"measurement": "kinase activity, HPLC-MS product detection (ADP and GTP)", "setting": "[3]", "value": "RelP^*Cg possesses a kinase activity, since ADP and GTP were produced"}, {"measurement": "pyrophosphokinase assay, HPLC-MS product detection (ppGpp)", "setting": "[4]", "value": "pyrophosphorylation of GDP and GTP to ppGpp and pppGpp was detected"}]}, {"molecule": "B1", "values": [{"measurement": "Km", "setting": "[5]", "value": 6.1, "unit": "mM"}, {"measurement": "Km", "setting": "[6]", "value": 4.1, "unit": "mM"}, {"measurement": "K0.5", "setting": "[7]", "value": 0.8, "unit": "mM"}]}]}
